Patent US6410037B1, “Anti-pruritic compositions” (Roche Consumer Health AG, priority 1999, dated 2002)

Tests used:
[1] = system: peritoneal mastocytes of rat; test: Histamine release by peritoneal mastocytes of rat stimulated by substance P (spectrofluorimetry with OPT); format: cell-based; settings: 10 μg/ml Ca-panthothenate and 7.5 μg/ml glycine, taken separately or together; substance P 10 μM
Procedure: Peritoneal mastocytes of rat were incubated with the test products and the substance P for 2 minutes at 37° C. in the following medium: sodium phosphate buffer 4 mM; potassium phosphate buffer 2.7 mM; NaCl 0.145 M; KCl 2.7 mM; CaCl2 0.9 mM; BSA (bovine serum albumin 0.175% (w/v). At the end of the incubation, histamine released by the mastocytes was quantified by spectrofluorimetry with ortho-phthalaldehyde (OPT) (R. Hakanson, A. I. Ronnberg and K. Sjolund, Analy. Biochem., 47,1972, pp. 356-370). The measurements were carried out by means of a multiplate spectrofluorimeter (Cytofluor 2350, MILLIPORE). Data groups (control and treated groups) were compared using a one-way analysis of variance (ANOVA 1, p<0.05), following by a Dunnett' test (p<0.05).

human skin tissue = test: Histamine release by human skin discs stimulated by substance P (ELISA); format: cell-based
Procedure: Test were carried out on peritoneal mastocytes of rat stimulated by the substance P (10 μM), or on human skin tissue.
The skin tissue assay system was prepared from normal adult skin collected after abdominal plastic surgery. The subject was a person (subject M1085). The skin tissue specimen was rinsed in Krebs bicarbonate solution consisting of: NaCl 118 mM; KCl 5.4 mM; NaH2PO4 1 mM; MgSO4 1.2 mM, CaCl2 1.9 mM; NaHCO3 25 mM and D-glucose 11.1 mM. Skin discs of about 8 mm of diameter were performed. Skin discs were cultured in RPMI 1640 medium supplemented with penicillin (100 UI/ml), streptomycin (110 μg/ml) and 2 mM glutamine. Skin discs were maintained at 37° C. in a humidified incubator under a 5% Co2/95% air atmosphere. Test products were incubated with the human skin discs and 100 μM of substance P for 2 hours at 37° C.
At the end of the incubation, histamine released by the human skin discs was quantified by ELISA (IMMUNOTECH). The results were expressed as pmoles of histamine released per gram of skin. Data groups (control and treated groups) were compared using a one-way analysis of variance (ANOVA 1, p<0.05), following by a Dunnett's test (p<0.05).

mastocytes = settings: cited from earlier work

Molecule | Inhibition of histamine release (in words) [1] | Inhibition of histamine release (in words) (human skin tissue; already at a concentration of 25 μg/ml) | Effect of addition of glycine to Ca-pantothenate on inhibition of histamine release (in words) (human skin tissue; glycine 75 μg/ml added to Ca-pantothenate 100 μg/ml) | Histamine release by mastocytes (in words) (mastocytes)
calcium pantothenate [Ca-pantothenate] | do not act as inhibitors | acts as inhibitor of the histamine release |  | 
NCC(=O)O [Glycine] | do not act as inhibitors |  | further improves such inhibition | inhibits histamine release by mastocytes
